# Laboratory results from EP4566614A1, “DRY EYE REMEDY CONTAINING DNA OLIGONUCLEOTIDE […] BINDING TO IFN-y” (TAGCyx Biotechnologies Inc., priority 2022, dated 2024).
# Molecular target: T1, IFN-y (Homo sapiens, UniProt P01579)
# T1 sequence (P01579 24-166): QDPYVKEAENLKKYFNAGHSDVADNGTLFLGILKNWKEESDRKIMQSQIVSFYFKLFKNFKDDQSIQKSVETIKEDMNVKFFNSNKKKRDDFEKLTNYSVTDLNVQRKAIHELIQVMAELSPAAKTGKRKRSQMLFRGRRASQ
# Assay: Binding of PEG-modified form to IFN-y by SPR (Surface Plasmon Resonance)
# Conditions: PEG (40000) on base X
# Source text: With the base of X produced in Example 2, Aptamer 3 (1 eq) having a primary amine side chain and commercially available NHS-PEG (40000) (1.5 eq) were mixed in a phosphate buffer at pH 7 to 8 and the mixture was stirred for 1 day at room temperature. The reaction solution was concentrated and the resulting modified form was purified by reversed phase HPLC to obtain a PEG-modified form of Aptamer 3.
substance,measurement,setting,value
"PEG-modified form of Aptamer 3: Aptamer 3 having a primary amine side chain at X reacted with NHS-PEG (40000) (CCCGCCCGGGTCCGCGAAGCGGTAGGTNTGGGCTAGGCNGCTGGCGGGCGCGNAGCG; DNA aptamer, amine side-chain residue X conjugated to 40 kDa PEG, further chemistry not given here)",ability to bind to IFN-y,,retained its ability to bind to IFN-y
same,ability to bind to IFN-y,listed as PEG-modified form of a DNA aptamer having the sequence of SEQ ID NO: 3,capable of binding to IFN-γ
